# In patent publication US20240254186A1, “GLP-1 Receptor Agonists Having Improved Pharmacological and Drug Delivery Properties” (priority 2021, published 2024):
# Read-outs that look alike come from different tables or passages of the source. Numbered stars: 1 amine (or outer) side, 2 acyl side, 3 side chain; on linkers, the order of the positions; unused ones are H or OH. Square brackets hold non-standard residues; d marks the D form. Side chains are listed from the residue outwards. Peptide text beside a SMILES is read from it. * marks the point of attachment. ξ: configuration not given here. Dap(Nα-HOOC(CH2)16CO)OH = O=C(O)CCCCCCCCCCCCCCCCC(=O)N[C@@H](CN*)C(=O)O; X6 = O=C([C@H](CCc1ccc(OC(=O)[*:3])cc1)N[*:1])[*:2]; Bip = N[C@@H](Cc1ccc(-c2ccccc2)cc1)C(=O)O; C18 diacid = O=C(O)CCCCCCCCCCCCCCCCC(=O)*; Hydrocinnamoyl(4-I) = O=C(CCc1ccc(I)cc1)*; X2 = O=C(CCc1ccc(I)cc1)N[C@@H](CN*)C(=O)O; αMePhe(2-F) = C[C@](N)(Cc1ccccc1F)C(=O)O; ξαMePhe(2-F) = CC(N)(Cc1ccccc1F)C(=O)O; hPhe = N[C@@H](CCc1ccccc1)C(=O)O; αMeF = C[C@](N)(Cc1ccccc1)C(=O)O; αMeP = C[C@@]1(C(=O)O)CCCN1; dDap = NC[C@@H](N)C(=O)O; ξαMeP = CC1(C(=O)O)CCCN1; ξαMeS = CC(N)(CO)C(=O)O; AEEA = NCCOCCOCC(=O)O; Aib = CC(C)(N)C(=O)O
# Target: T1, hGLP1 receptor (Homo sapiens, UniProt P43220)
# T1 construct: expressed in transfected cells; host or cells: HEK (human embryonic kidney) cells co-expressing hGLP1 receptor and a CRE-Luciferase construct
# T1 sequence (P43220 24-463): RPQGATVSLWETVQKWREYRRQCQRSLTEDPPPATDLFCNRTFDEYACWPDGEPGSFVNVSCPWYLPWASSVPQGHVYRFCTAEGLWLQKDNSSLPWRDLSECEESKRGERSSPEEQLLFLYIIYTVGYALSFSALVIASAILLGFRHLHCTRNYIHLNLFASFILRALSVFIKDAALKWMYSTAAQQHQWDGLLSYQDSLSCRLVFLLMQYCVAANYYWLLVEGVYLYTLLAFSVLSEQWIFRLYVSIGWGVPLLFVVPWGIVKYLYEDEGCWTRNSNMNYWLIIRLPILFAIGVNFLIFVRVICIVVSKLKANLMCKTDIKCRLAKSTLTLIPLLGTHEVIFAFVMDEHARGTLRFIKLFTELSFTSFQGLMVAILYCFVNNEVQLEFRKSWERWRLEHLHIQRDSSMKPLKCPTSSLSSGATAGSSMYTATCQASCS
# Test: cAMP HTRF agonist assay in HEK cells co-expressing the hGLP1 receptor and CRE-Luciferase construct
# Type: cell-based
# Settings: for potency compared with the parent peptide analog (1-2), in words: replacement of Aib2, versus parent 1-2; for potency relative to the parent peptide (1-4), fold less potent: versus parent 1-4
# Procedure: Human embryonic kidney cells (HEK) co-expressing the hGLP1 receptor and CRE-Luciferase construct were used to determine agonist potency in this assay. The cells were thawed briefly at 37° C., transferred to a sterile tube and re-suspended in complete media at 37° C. Cells were centrifuged at 1000 rpm for 5 minutes and cells collected; cells were re-suspended in assay buffer consisting of DPBS (GIBCO) with 500 μM of the phosphodiesterase inhibitor IBMX. […] The optimal cell density was determined to be 1000 cells/well; cells were added to wells in 384-well plates containing appropriate pre-prepared dilutions of compounds (test peptides or reference compound exendin-4), sealed and incubated with CO2 for 30 min. Test peptide solutions were diluted from 10 mM stock solutions; for most peptides an initial run was performed in duplicate from a maximal concentration of 1.0 μM, with 11 concentrations tested for each peptide using serial 1:3 dilution from this maximal concentration. […] The agonist assay was a homogeneous time-resolved fluorescence (HTRF) assay (Cisbio).
# Following incubation of the cells for 30 minutes with test or reference peptides, 5 μL of the cAMP acceptor cAMP-d2, prepared previously as a working solution from frozen stock (1:20 dilution), was added to each well of the assay plate, along with 5 μL of anti-cAMP antibody-cryptate working solution (diluted 1:20 from frozen stock). The wells were incubated for 1 hour at room temperature, and fluorescence was then read at 665 and 615 nm with an Envision reader with TRF laser. Data were saved and analyzed using Prism software (GraphPad). Concentration-response analysis was performed using 4-parameter logistic fits of the resulting data, and EC50 values obtained for each test and reference compound.
# [1] = read-out: cAMP EC50, nM (0.1% albumin), Table 6, C-terminal PK-modifier conjugates, 0.1% albumin
smiles,measurement,setting,value
"C[C@@H](O)[C@H](NC(=O)CNC(=O)[C@H](CCC(=O)O)NC(=O)C(C)(C)NC(=O)[C@@H](N)Cc1c[nH]cn1)C(=O)N[C@@](C)(Cc1ccccc1)C(=O)N[C@H](C(=O)N[C@@H](CO)C(=O)N[C@@H](CC(=O)O)C(=O)N[C@@H](Cc1ccc(-c2ccccc2)cc1)C(=O)N[C@@H](Cc1ccc(-c2ccccc2)cc1)C(N)=O)[C@@H](C)O [3-16, H2N-His-Aib-Glu-Gly-Thr-α-MePhe-Thr-Ser-Asp-Bip-Bip-C(O)NH2] (H-H[Aib]EGT[αMeF]TSD[Bip][Bip]-NH2)",EC50,"cAMP EC50, nM (0.1% albumin), Table 1, Phe6 modifications, 0.1% albumin",0.32 nM
"C[C@@H](O)[C@H](NC(=O)CNC(=O)[C@H](CCC(=O)O)NC(=O)C(C)(C)NC(=O)[C@@H](N)Cc1c[nH]cn1)C(=O)N[C@@](C)(Cc1ccccc1)C(=O)N[C@H](C(=O)N[C@@H](CO)C(=O)N[C@@H](CC(=O)O)C(=O)N[C@@H](Cc1ccc(-c2ccccc2)cc1)C(=O)N[C@@H](Cc1ccc(-c2ccccc2)cc1)C(N)=O)[C@@H](C)O [3-17, H2N-His-Aib-Glu-Gly-Thr-α-MePhe-Thr-Ser-Asp-Bip-Bip-C(O)NH2] (H-H[Aib]EGT[αMeF]TSD[Bip][Bip]-NH2)",EC50,"Table 1, cell annotated (0% albumin), read-out: cAMP EC50",0.08 nM
"CC(C)[C@H](NC(=O)[C@@H](N)Cc1c[nH]cn1)C(=O)N[C@@H](CCC(=O)O)C(=O)NCC(=O)N[C@H](C(=O)N[C@@](C)(Cc1ccccc1F)C(=O)N[C@H](C(=O)N[C@@H](CO)C(=O)N[C@@H](CC(=O)O)C(=O)N[C@@H](Cc1ccc(-c2ccccc2)cc1)C(=O)N[C@@H](Cc1ccc(-c2ccccc2)cc1)C(N)=O)[C@@H](C)O)[C@@H](C)O [3-39, H2N-His-Val-Glu-Gly-Thr-α-MePhe(2-F)-Thr-Ser-Asp-Bip-Bip-C(O)NH2] (H-HVEGT[αMePhe(2-F)]TSD[Bip][Bip]-NH2)","potency compared with the parent peptide analog (1-2), in words",,slightly less potency
"C[C@@H](O)[C@H](NC(=O)CNC(=O)[C@H](CCC(=O)O)NC(=O)[C@]1(C)CCCN1C(=O)[C@@H](N)Cc1c[nH]cn1)C(=O)N[C@@](C)(Cc1ccccc1F)C(=O)N[C@H](C(=O)N[C@@H](CO)C(=O)N[C@@H](CC(=O)O)C(=O)N[C@@H](Cc1ccc(-c2ccccc2)cc1)C(=O)N[C@@H](Cc1ccc(-c2ccccc2)cc1)C(N)=O)[C@@H](C)O [3-40, H2N-His-α-MePro-Glu-Gly-Thr-α-MePhe(2-F)-Thr-Ser-Asp-Bip-Bip-C(O)NH2] (H-H[αMeP]EGT[αMePhe(2-F)]TSD[Bip][Bip]-NH2)","potency compared with the parent peptide analog (1-2), in words",,significantly greater potency
C[C@@H](O)[C@H](NC(=O)CNC(=O)[C@H](CCC(=O)O)NC(=O)C1(C)CCCN1C(=O)[C@@H](N)Cc1c[nH]cn1)C(=O)NC(C)(Cc1ccccc1F)C(=O)NC(C)(CO)C(=O)N[C@@H](CO)C(=O)N[C@@H](CC(=O)O)C(=O)N[C@@H](Cc1ccc(-c2ccccc2)cc1)C(=O)N[C@@H](Cc1ccc(-c2ccccc2)cc1)C(N)=O (some centres unmarked) [3-59] (H-H[ξαMeP]EGT[ξαMePhe(2-F)][ξαMeS]SD[Bip][Bip]-NH2),EC50,"cAMP EC50, nM (0.1% albumin), Table 4, N-terminal modifications, 0.1% albumin",20.9 nM
"C[C@@H](O)[C@H](NC(=O)CNC(=O)[C@H](CCC(=O)O)NC(=O)C(C)(C)NC(=O)[C@@H](N)Cc1c[nH]cn1)C(=O)N[C@@](C)(Cc1ccccc1F)C(=O)N[C@H](C(=O)N[C@@H](CO)C(=O)N[C@@H](CC(=O)O)C(=O)N[C@@H](Cc1ccc(-c2ccccc2)cc1)C(=O)N[C@@H](CCc1ccccc1)C(=O)O)[C@@H](C)O [4-1, H2N-His-Aib-Glu-Gly-Thr-α-MePhe(2-F)-Thr-Ser-Asp-Bip-Hph-C(O)OH] (H-H[Aib]EGT[αMePhe(2-F)]TSD[Bip][hPhe]-OH)","potency relative to the parent peptide (1-4), fold less potent",,about 30 fold
"C[C@@H](O)[C@H](NC(=O)CNC(=O)[C@H](CCC(=O)O)NC(=O)C(C)(C)NC(=O)[C@@H](N)Cc1c[nH]cn1)C(=O)N[C@@](C)(Cc1ccccc1F)C(=O)N[C@H](C(=O)N[C@@H](CO)C(=O)N[C@@H](CC(=O)O)C(=O)N[C@@H](Cc1ccc(-c2ccccc2)cc1)C(=O)N[C@@H](CCc1ccccc1)C(=O)NCCOCCOCC(=O)NCCOCCOCC(=O)NC[C@H](NC(=O)CCCCCCCCCCCCCCCCC(=O)O)C(=O)O)[C@@H](C)O [4-36, H2N-His-Aib-Glu-Gly-Thr-α-MePhe(2-F)-Thr-Ser-Asp-Bip-Hph-C(O)NH-RY2] (H-H[Aib]EGT[αMePhe(2-F)]TSD[Bip][hPhe][AEEA][AEEA]-{Dap(Nα-HOOC(CH2)16CO)OH})","potency relative to the parent peptide (1-4), fold less potent",,15 fold
"C[C@@H](O)[C@H](NC(=O)CNC(=O)[C@H](CCC(=O)O)NC(=O)C(C)(C)NC(=O)[C@@H](N)Cc1c[nH]cn1)C(=O)N[C@@](C)(Cc1ccccc1F)C(=O)N[C@H](C(=O)N[C@@H](CO)C(=O)N[C@@H](CC(=O)O)C(=O)N[C@@H](Cc1ccc(-c2ccccc2)cc1)C(=O)N[C@@H](CCc1ccccc1)C(=O)NCCOCCOCC(=O)NCCOCCOCC(=O)NCCOCCOCC(=O)NC[C@H](NC(=O)CCc1ccc(I)cc1)C(=O)O)[C@@H](C)O [4-37, H2N-His-Aib-Glu-Gly-Thr-α-MePhe(2-F)-Thr-Ser-Asp-Bip-Hph-C(O)NH-RY3] (H-H[Aib]EGT[αMePhe(2-F)]TSD[Bip][hPhe][AEEA][AEEA][AEEA]-X2)",EC50,[1],4.08 nM
same,"potency relative to the parent peptide (1-4), fold less potent",,equipotency
"C[C@@H](O)[C@H](NC(=O)CNC(=O)[C@H](CCC(=O)O)NC(=O)C(C)(C)NC(=O)[C@@H](N)Cc1c[nH]cn1)C(=O)N[C@@](C)(Cc1ccccc1F)C(=O)N[C@H](C(=O)N[C@@H](CO)C(=O)N[C@@H](CC(=O)O)C(=O)N[C@@H](Cc1ccc(-c2ccccc2)cc1)C(=O)N[C@@H](CCc1ccc(OC(=O)NCCOCCOCC(=O)NCCOCCOCC(N)=O)cc1)C(N)=O)[C@@H](C)O [4-38, H2N-His-Aib-Glu-Gly-Thr-α-MePhe(2-F)-Thr-Ser-Asp-Bip-Hph(4-OR4)-C(O)NH2] (H-H[Aib]EGT[αMePhe(2-F)]TSD[Bip][X6]([AEEA-AEEA-NH2])-NH2)",EC50,[1],320 nM
"C[C@@H](O)[C@H](NC(=O)CNC(=O)[C@H](CCC(=O)O)NC(=O)C(C)(C)NC(=O)[C@@H](N)Cc1c[nH]cn1)C(=O)N[C@@](C)(Cc1ccccc1F)C(=O)N[C@H](C(=O)N[C@@H](CO)C(=O)N[C@@H](CC(=O)O)C(=O)N[C@@H](Cc1ccc(-c2ccccc2)cc1)C(=O)N[C@@H](CCc1ccc(OC(=O)NCCOCCOCC(=O)NCCOCCOCC(=O)NC[C@H](NC(=O)CCCCCCCCCCCCCCCCC(=O)O)C(=O)O)cc1)C(N)=O)[C@@H](C)O [4-39, H2N-His-Aib-Glu-Gly-Thr-α-MePhe(2-F)-Thr-Ser-Asp-Bip-Hph(4-OR5)-C(O)NH2] (H-H[Aib]EGT[αMePhe(2-F)]TSD[Bip][X6]([AEEA-AEEA-Dap(Nα-HOOC(CH2)16CO)OH])-NH2)",EC50,[1],232 nM
"C[C@@H](O)[C@H](NC(=O)CNC(=O)[C@H](CCC(=O)O)NC(=O)C(C)(C)NC(=O)[C@@H](N)Cc1c[nH]cn1)C(=O)N[C@@](C)(Cc1ccccc1F)C(=O)N[C@H](C(=O)N[C@@H](CO)C(=O)N[C@@H](CC(=O)O)C(=O)N[C@@H](Cc1ccc(-c2ccccc2)cc1)C(=O)N[C@@H](CCc1ccc(OC(=O)NCCOCCOCC(=O)NCCOCCOCC(=O)NCCOCCOCC(=O)NC[C@H](NC(=O)CCc2ccc(I)cc2)C(=O)O)cc1)C(N)=O)[C@@H](C)O [4-40, H2N-His-Aib-Glu-Gly-Thr-α-MePhe(2-F)-Thr-Ser-Asp-Bip-Hph(4-OR6)-C(O)NH2] (H-H[Aib]EGT[αMePhe(2-F)]TSD[Bip][X6]([AEEA-AEEA-AEEA-X2])-NH2)",EC50,[1],49.7 nM
"C[C@@H](O)[C@H](NC(=O)CNC(=O)[C@H](CCC(=O)O)NC(=O)C(C)(C)NC(=O)[C@@H](N)Cc1c[nH]cn1)C(=O)N[C@@](C)(Cc1ccccc1F)C(=O)N[C@H](C(=O)N[C@@H](CO)C(=O)N[C@@H](CC(=O)O)C(=O)N[C@@H](Cc1ccc(-c2ccccc2)cc1)C(=O)N[C@@H](Cc1ccc(-c2ccccc2)cc1)C(=O)NCCOCCOCC(=O)NCCOCCOCC(=O)N[C@H](CNC(=O)CCCCCCCCCCCCCCCCC(=O)O)C(N)=O)[C@@H](C)O [4-46, H2N-His-Aib-Glu-Gly-Thr-α-MePhe(2-F)-Thr-Ser-Asp-Bip-Bip-C(O)NH-RY8] (H-H[Aib]EGT[αMePhe(2-F)]TSD[Bip][Bip][AEEA][AEEA][dDap](C18 diacid)-NH2)",EC50,[1],5.4 nM
"C[C@@H](O)[C@H](NC(=O)CNC(=O)[C@H](CCC(=O)O)NC(=O)C(C)(C)NC(=O)[C@@H](N)Cc1c[nH]cn1)C(=O)N[C@@](C)(Cc1ccccc1F)C(=O)N[C@H](C(=O)N[C@@H](CO)C(=O)N[C@@H](CC(=O)O)C(=O)N[C@@H](Cc1ccc(-c2ccccc2)cc1)C(=O)N[C@@H](Cc1ccc(-c2ccccc2)cc1)C(=O)NCCOCCOCC(=O)NCCOCCOCC(=O)NCCOCCOCC(=O)N[C@H](CNC(=O)CCc1ccc(I)cc1)C(N)=O)[C@@H](C)O [4-47, H2N-His-Aib-Glu-Gly-Thr-α-MePhe(2-F)-Thr-Ser-Asp-Bip-Bip-C(O)NH-RY9] (H-H[Aib]EGT[αMePhe(2-F)]TSD[Bip][Bip][AEEA][AEEA][AEEA][dDap](Hydrocinnamoyl(4-I))-NH2)",EC50,[1],0.6 nM
